We go through 23 compounds from ChEMBL document CHEMBL1201862, “PubChem BioAssay data set” (2004).

Active and inactive are the calls of the source. Cut-off read from the data, not from the text of the source, for most assays here: actives have a measured EC50 and inactives only a lower limit.

A short description of assay [1]: cells. It is filed as functional, cell-based.
A short description of assay [2]: cells. The assay is classed as functional, cell-based. This is another data set of the same source.
Assay [3] deals with T1, RNA-binding protein pos-1 (Caenorhabditis elegans, UniProt G5EF15).
T1 sequence (G5EF15 whole entry): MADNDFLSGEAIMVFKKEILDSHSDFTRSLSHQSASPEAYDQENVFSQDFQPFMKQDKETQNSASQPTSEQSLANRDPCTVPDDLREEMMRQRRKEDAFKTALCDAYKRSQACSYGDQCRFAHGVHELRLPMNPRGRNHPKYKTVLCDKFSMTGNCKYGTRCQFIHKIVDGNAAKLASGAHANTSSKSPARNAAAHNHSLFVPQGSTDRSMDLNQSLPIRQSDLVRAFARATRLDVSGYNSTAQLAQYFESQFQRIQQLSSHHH
Briefly: inhibitors of POS-1/mex-3 RNA binding, dose response, biochemical, fluorescence polarization (AID 1964). (Polarisation of emitted light reports the rotation of a fluorescent probe.)

Assay [4] has as its target T2, Zinc finger protein mex-5 (Caenorhabditis elegans, UniProt Q9XUB2).
T2 sequence (Q9XUB2 whole entry): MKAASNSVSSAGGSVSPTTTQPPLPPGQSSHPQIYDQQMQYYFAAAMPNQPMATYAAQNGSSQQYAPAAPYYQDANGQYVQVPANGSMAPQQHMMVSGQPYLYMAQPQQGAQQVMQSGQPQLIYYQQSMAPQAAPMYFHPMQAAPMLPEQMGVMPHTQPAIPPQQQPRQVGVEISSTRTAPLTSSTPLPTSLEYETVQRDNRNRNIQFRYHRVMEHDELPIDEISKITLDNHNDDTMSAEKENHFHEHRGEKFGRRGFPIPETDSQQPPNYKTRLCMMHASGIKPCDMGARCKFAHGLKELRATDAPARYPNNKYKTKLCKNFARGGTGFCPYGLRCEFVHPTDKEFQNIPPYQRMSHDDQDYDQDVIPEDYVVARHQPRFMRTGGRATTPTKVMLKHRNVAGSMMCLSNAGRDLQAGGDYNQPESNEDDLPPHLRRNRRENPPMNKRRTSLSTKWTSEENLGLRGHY
Briefly: MEX-5/TCR-2 RNA interaction inhibitors, dose response, biochemical, C. elegans, fluorescence polarization (AID 1960).

In a further assay the target is T3, Protein skinhead-1 (Caenorhabditis elegans, UniProt P34707).
T3 sequence (P34707 whole entry): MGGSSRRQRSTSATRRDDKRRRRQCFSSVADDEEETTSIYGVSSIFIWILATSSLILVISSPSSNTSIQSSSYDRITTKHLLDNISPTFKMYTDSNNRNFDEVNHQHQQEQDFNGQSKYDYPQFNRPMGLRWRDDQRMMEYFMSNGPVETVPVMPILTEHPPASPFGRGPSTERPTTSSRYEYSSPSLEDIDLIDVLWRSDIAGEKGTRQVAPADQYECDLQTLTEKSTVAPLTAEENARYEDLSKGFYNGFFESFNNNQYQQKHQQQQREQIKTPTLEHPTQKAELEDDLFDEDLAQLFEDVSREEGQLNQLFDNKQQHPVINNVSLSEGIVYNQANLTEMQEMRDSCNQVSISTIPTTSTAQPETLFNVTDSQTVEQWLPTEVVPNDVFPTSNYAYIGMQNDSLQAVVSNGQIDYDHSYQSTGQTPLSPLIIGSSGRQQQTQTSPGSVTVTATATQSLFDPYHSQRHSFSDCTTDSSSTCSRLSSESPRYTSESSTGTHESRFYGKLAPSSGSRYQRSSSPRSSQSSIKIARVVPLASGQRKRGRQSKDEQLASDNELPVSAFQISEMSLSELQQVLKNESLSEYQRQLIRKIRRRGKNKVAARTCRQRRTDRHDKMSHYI
The assay is classed as functional.

Assay [5] in a line: inhibitors of firefly luciferase expression or activity, dose response, H4 neuroglioma cells, luminescence (AID 1990). The assay is classed as functional, cell-based.
A short description of assay [6]: Luminescence Cell-Based Dose Response HTS to Identify Inhibitors of 5'UTR Stem-Loop Driven Prion Protein mRNA Translation in H4 Neuroglioblastoma Cells. [Related pubchem assays: 1827 (Project Summary), 1813 (Primary HTS)]. It is filed as functional.
Assay [7] in a line: inhibitors of SNCA 5'UTR-driven reporter translation, confirmation, H4 neuroglioma cells, luminescence (AID 1988). It is filed as functional, cell-based.
The target of assay [8] is T4, Replicative DNA helicase DnaB (Mycobacterium tuberculosis, UniProt P9WMR3).
T4 sequence (P9WMR3 whole entry): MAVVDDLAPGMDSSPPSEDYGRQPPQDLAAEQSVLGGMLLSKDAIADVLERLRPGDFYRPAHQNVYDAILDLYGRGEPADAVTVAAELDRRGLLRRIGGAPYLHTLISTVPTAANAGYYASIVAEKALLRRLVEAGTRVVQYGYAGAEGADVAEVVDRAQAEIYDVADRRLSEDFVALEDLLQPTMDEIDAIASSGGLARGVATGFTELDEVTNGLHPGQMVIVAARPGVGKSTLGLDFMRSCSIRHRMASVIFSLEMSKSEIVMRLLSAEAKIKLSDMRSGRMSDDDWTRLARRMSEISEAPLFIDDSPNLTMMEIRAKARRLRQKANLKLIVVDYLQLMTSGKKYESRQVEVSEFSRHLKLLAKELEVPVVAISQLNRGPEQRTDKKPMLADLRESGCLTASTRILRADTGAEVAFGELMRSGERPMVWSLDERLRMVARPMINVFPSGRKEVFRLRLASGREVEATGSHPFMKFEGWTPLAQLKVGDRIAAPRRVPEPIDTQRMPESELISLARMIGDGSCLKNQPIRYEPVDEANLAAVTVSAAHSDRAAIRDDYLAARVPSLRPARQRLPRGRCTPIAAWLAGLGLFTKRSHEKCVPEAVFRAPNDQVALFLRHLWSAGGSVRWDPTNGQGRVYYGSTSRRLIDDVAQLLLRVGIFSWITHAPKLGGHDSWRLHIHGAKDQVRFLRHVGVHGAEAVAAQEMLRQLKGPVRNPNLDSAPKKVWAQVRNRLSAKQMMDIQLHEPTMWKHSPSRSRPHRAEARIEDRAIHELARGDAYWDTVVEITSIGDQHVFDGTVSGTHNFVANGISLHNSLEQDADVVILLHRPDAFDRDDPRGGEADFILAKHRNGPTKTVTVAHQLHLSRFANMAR
Briefly: DnaB intein splicing inhibitors, dose response, biochemical, cell-free fluorescence (AID 449749). The assay is classed as functional.

The target in the next assay is T5, Protein RecA (Mycobacterium tuberculosis, UniProt P9WHJ3).
T5 sequence (P9WHJ3 whole entry): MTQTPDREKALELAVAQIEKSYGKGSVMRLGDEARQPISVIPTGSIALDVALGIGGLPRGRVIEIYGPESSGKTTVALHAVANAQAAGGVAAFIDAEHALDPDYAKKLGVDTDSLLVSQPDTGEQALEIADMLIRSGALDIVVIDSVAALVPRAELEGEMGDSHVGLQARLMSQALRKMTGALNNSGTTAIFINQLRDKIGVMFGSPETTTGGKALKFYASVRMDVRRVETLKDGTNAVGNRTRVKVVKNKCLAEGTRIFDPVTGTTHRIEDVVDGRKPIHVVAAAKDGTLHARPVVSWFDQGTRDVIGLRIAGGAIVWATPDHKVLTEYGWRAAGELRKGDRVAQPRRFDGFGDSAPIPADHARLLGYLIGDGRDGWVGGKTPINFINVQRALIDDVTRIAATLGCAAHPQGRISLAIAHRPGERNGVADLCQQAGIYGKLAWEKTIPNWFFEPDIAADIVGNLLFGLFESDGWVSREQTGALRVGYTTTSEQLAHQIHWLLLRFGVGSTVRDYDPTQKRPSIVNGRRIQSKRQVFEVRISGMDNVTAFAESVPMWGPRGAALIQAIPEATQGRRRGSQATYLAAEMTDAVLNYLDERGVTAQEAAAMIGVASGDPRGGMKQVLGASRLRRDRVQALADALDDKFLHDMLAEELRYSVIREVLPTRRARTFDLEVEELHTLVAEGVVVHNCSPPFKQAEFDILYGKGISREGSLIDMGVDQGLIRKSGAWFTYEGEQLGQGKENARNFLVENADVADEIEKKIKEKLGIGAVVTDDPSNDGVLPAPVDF
Briefly: Fluorescence Cell-Free Homogeneous Dose Retest to Identify Inhibitors of RecA-Intein Splicing Activity. [Related pubchem assays (depositor defined):AID2097, AID2223, AID489010, AID492950]. The assay is classed as functional.

A short description of assay [9]: Luminescence Cell-Based Dose Retest to Confirm Inhibitors of Cancer Stem Cells. [Related pubchem assays (depositor defined):AID2717, AID2721]. It is filed as functional. Conditions: Homo sapiens.
Assay [10] in a line: Luminescence Cell-Based Dose Confirmation HTS to Identify Activators of 5'UTR Stem-Loop Driven Alpha-Synuclein mRNA Translation in H4 Neuroglioblastoma Cells. [Related pubchem assays: 1829 (Project Summary), 1814 (Primary HTS)]. It is filed as functional.
Assay [11] is described as follows: Luminescence Cell-Based Dose Response HTS to Identify Activators of Luciferase Translation or Activity in H4 […] Cells. [Related pubchem assays: 1829 (Project Summary), 1814 (Primary HTS)]. It is filed as functional.
For the next assay, the system named is H4. Briefly: Luminescence Cell-Based Dose Response HTS to Identify Activators of 5'UTR Stem-Loop Driven Prion Protein mRNA Translation in H4 Neuroglioblastoma Cells. [Related pubchem assays: 1829 (Project Summary), 1814 (Primary HTS)]. It is filed as functional. Conditions: Homo sapiens.
The test system of a further assay is INS1. Put plainly: beta cell apoptosis inhibitors, cytokine rescue, dose response, luminescence, retest (AID 449756).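 Note: cell death triggered by IL-1 beta plus TNF-alpha plus IFN-gamma mixture; protective hits raise ATP signal compared with cytokine alone wells.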 It is filed as functional, cell-based. To be noted: Rattus norvegicus.

For orientation: EC50 means the concentration giving half of the maximal effect. `COc1nccc(C(F)(F)F)c1C(=O)NC(=O)Nc1ccccc1`: the EC50 in the assay “cells [1]” and in “cells [2]” was > 350 µM (not active) throughout.
The IC50 is the midpoint of a concentration-inhibition curve. Consider `C(#Cc1ccc2c(c1)COc1c3ccccc3nn1-2)c1ccccc1`, for which the results for the EC50 in assay [3] and in assay [4] were > 300 µM (not active) and 169 µM (active), respectively. Also, the IC50 at Protein skinhead-1 is > 100 µM (inactive).
For the compound `Cc1ccccc1-n1c(=O)n(Cc2ccc(C(=O)O)cc2)c(=O)c2[nH]cnc21`, the EC50 in “cells [1]” and in “cells [2]” was > 350 µM (not active) in each case.
`Cc1cccc(C(=O)O/N=C(\N)c2ccc(Cl)cc2)c1`: the values for the EC50 in “cells [1]” and in “cells [2]” were > 350 µM (not active) and 16.7 µM (active), respectively.
For the compound `Cc1cccc(C)c1OCC(O)CN(Cc1ccccc1O)C1CCCCC1` (stereo not drawn), the EC50 in assay [5], in assay [6] and in assay [7] was > 120 µM (not active) throughout. Also, the IC50 at Protein skinhead-1 was > 100 µM (inactive).
Take `C(=C\c1ccc2ccccc2n1)/c1ccccc1`: the IC50 on Protein skinhead-1 was 24.8 µM (active).
As to `CC(=O)N1c2ccc(S(=O)(=O)NCCc3ccccc3)cc2CC1C` (stereo not drawn), the EC50 in “cells [1]” and in “cells [2]” was > 350 µM (not active) in each case.
Turning to `CC1OC(c2ccccc2)OC2COC(c3ccccc3)OC12` (stereo not drawn), on Protein skinhead-1, the IC50 is > 100 µM (inactive).
Regarding `Cc1cc(C)c(NC(=O)C[S+]([O-])CC(=O)Nc2ccc(N3CCOCC3)cc2)c(C)c1` (stereo not drawn), the IC50 on Protein skinhead-1 was > 100 µM (inactive).
With `CCNc1nc(Cl)nc(NNC(=O)C(C)Oc2ccccc2)n1` (stereo not drawn), the results for the concentration giving a half-maximal response (EC50) in the assay “cells [1]” and in “cells [2]” were > 350 µM (not active) and 47 µM (active), respectively.
`CCCCOC(=O)Nc1ccc(C(C)C)cc1`: at Protein skinhead-1, the IC50 was 42.4 µM (active).
For orientation: AC50 means the concentration giving half of the maximal activity seen. On to `N#C/C(=C/c1cccn1-c1cccc(C(=O)O)c1)c1ccc(F)cc1`, for which the figures for the EC50 (in [3]; in assay [4]; on Protein RecA) were > 300 µM (not active), > 300 µM (not active) and > 380 µM (inconclusive), respectively. Moreover, the AC50 in assay [8] was 14.1 µM (active).
As for `Cc1nnc(SCc2cccc(Cl)c2)n(N)c1=O`, the EC50 in the assay “cells [1]” and in “cells [2]” was > 350 µM (not active) each time.
Regarding `Cc1ccc(Nc2nc(CSc3nnc(-c4ccncc4)n3C)cs2)cc1`, the concentration for a half-maximal effect (EC50) in the assay “cells [1]” and in the assay “cells [2]” was > 350 µM (not active) throughout.
In the case of `CS(=O)(=O)c1ccc(C(=O)OCC(=O)NC23CC4CC(CC(C4)C2)C3)cc1[N+](=O)[O-]`, the AC50 is 2.4 µM (active) in assay [9] and 1.18 µM (active) in assay [8]. Besides, the EC50 on Protein RecA is 1.32 µM (active).
`COc1ccccc1CCNS(=O)(=O)c1cc2c3c(c1)C(C)C(=O)N3CCC2` (stereo not drawn): the EC50 in the assay “cells [1]” and in the assay “cells [2]” was > 350 µM (not active) each time.
In the case of `CCOc1ccc2c(=O)c(Oc3ccccc3OCC)coc2c1`, the EC50 was 7.35 µM (active) in assay [10], 7.99 µM (active) in [11] and 19.3 µM (active) in the assay with H4. In addition, the IC50 at Protein skinhead-1 was > 100 µM (inactive).
On to `O=C(/C=C/c1ccco1)N1CCc2ccccc21`, for which the IC50 at Protein skinhead-1 was 48.6 µM (active).
Regarding `Cc1cc(NC(=O)c2ccccc2)n(-c2nc3ccccc3[nH]2)n1`, the results for the EC50 in “cells [1]” and in “cells [2]” were > 350 µM (not active) and 63.9 µM (active), respectively.
On to `Cc1cccc(CSC(Nc2ccc(F)cc2)=C(C#N)C#N)c1`, for which the AC50 was 7.03 µM (active) in assay [8] and 4.83 µM (active) with INS1. Also, the EC50 at Protein RecA was 10.9 µM (active).
`CC(=O)Nc1ccc(NC(=O)C2Cc3c(-c4cccc(F)c4)ccnc3O2)cc1` (stereo not drawn): the IC50 on Protein skinhead-1 is > 100 µM (inactive).
With `CC(C)c1ccc2oc(=O)cc(CN3CCOCC3)c2c1`, the EC50 in “cells [1]” and in “cells [2]” was > 350 µM (not active) in each case.
As to `Cc1cc(C(=O)CSc2nnc(-c3cccs3)n2Cc2ccccc2)c(C)n1C`, the IC50 on Protein skinhead-1 is > 100 µM (inactive).
